Assay in all cases: Large panel kinase profiling
Common to all, as to type: biochemical
Holding throughout (settings): 1 μM test article, 1 mM ATP

In one test the target is T1, NEK6 (Homo sapiens, UniProt Q9HC98).
T1 construct: AssayQuant Technologies, Inc. (assay service)
Put shortly: (§1)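 One compound concentration (1 μM) was screened against each kinase at 1 mM ATP using PhosphoSens CSox-Sensor detection, at 30° C., with fluorescence read every 1 min (Ex 360 nm/Em 485 nm).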

The target in another test is T2, SGK2 (Homo sapiens, UniProt Q9HBY8).
T2 construct: AssayQuant Technologies, Inc. (contract assay)
T2 sequence (Q9HBY8 1-367): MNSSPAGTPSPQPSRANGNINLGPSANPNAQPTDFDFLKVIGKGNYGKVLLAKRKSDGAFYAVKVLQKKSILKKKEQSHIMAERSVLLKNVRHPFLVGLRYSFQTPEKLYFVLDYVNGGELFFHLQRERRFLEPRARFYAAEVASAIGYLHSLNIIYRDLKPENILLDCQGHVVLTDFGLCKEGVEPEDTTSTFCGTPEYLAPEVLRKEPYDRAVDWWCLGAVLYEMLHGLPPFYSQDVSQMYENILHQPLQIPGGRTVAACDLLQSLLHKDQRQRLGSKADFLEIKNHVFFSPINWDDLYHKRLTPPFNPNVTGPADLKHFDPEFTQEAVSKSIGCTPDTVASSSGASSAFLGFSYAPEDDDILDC
Put shortly: as §1

In a further test the target is T3, HIPK1 (Homo sapiens, UniProt Q86Z02).
T3 construct: AssayQuant Technologies, Inc. (service provider)
The method in brief:
as §1

The target of a further test is T4, JAK1(JH1) (Homo sapiens, UniProt P23458).
T4 construct: JAK1(JH1)
Put shortly: as §1

The next test deals with FGR (Homo sapiens, UniProt P09769). Put shortly:
as §1

Another test concerns the target T5, NEK1 (Homo sapiens, UniProt Q96PY6).
T5 construct: AssayQuant Technologies, Inc. (assay service)
T5 sequence (Q96PY6 1-1258): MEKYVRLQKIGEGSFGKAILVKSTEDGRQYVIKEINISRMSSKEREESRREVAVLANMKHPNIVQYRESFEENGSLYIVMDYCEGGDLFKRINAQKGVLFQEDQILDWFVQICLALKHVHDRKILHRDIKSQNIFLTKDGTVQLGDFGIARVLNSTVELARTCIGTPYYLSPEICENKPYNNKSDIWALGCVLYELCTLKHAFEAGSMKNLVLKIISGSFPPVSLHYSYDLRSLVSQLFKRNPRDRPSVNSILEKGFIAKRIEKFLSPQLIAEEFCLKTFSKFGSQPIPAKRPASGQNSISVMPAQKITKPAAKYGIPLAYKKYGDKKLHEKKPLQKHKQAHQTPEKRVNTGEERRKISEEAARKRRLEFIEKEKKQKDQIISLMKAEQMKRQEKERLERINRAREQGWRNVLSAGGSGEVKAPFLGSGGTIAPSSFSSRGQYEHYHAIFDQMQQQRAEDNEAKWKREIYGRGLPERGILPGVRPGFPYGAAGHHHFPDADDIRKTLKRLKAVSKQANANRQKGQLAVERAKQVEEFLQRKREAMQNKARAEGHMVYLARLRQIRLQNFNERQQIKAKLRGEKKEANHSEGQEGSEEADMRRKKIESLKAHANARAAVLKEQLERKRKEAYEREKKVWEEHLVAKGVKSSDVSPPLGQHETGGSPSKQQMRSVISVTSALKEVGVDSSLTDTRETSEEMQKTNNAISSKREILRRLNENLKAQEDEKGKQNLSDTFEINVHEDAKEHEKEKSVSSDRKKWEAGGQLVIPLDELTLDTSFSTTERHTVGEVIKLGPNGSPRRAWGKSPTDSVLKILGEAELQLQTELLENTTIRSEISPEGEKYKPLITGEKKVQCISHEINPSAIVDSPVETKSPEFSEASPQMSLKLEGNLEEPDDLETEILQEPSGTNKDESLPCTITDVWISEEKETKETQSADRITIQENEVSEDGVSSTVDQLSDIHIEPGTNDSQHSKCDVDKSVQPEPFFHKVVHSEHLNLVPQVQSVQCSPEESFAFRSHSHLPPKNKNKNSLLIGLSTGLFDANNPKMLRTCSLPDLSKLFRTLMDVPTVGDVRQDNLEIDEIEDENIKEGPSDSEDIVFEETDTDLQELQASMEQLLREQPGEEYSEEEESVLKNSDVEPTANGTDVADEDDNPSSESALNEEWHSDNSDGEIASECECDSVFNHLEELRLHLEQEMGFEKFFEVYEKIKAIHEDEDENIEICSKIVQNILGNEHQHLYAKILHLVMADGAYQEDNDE
Put shortly:
as §1

For the next test, the target named is T6, TSSK1 (Homo sapiens, UniProt Q9BXA7).
T6 construct: AssayQuant Technologies, Inc. (contract laboratory that ran the panel)
T6 sequence (Q9BXA7 1-367): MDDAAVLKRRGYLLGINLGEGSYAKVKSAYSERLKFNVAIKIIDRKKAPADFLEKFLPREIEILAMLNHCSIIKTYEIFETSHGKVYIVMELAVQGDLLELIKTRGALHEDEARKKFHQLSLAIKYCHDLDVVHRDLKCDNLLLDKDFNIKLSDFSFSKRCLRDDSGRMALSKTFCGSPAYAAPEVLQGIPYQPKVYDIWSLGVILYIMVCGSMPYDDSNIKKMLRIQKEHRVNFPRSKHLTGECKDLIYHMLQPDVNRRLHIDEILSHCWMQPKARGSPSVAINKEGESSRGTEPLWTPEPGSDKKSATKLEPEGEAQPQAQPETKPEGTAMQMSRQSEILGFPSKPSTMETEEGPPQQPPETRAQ
Put shortly:
as §1

A further test deals with T7, EGFR (Homo sapiens, UniProt P00533).
T7 construct: AssayQuant Technologies, Inc. (service laboratory)
The method in brief:
as §1

In a further test the target is PDGFRA (Homo sapiens, UniProt P16234). The method in brief:
as §1

The target in another test is T8, TYK2(JH1JH2) (Homo sapiens, UniProt P29597).
T8 construct: TYK2(JH1JH2); AssayQuant Technologies, Inc. (contract laboratory that ran the panel)
The method in brief: as §1

Structures are written as SMILES.

FGR, sequence (P09769 whole entry, species assumed): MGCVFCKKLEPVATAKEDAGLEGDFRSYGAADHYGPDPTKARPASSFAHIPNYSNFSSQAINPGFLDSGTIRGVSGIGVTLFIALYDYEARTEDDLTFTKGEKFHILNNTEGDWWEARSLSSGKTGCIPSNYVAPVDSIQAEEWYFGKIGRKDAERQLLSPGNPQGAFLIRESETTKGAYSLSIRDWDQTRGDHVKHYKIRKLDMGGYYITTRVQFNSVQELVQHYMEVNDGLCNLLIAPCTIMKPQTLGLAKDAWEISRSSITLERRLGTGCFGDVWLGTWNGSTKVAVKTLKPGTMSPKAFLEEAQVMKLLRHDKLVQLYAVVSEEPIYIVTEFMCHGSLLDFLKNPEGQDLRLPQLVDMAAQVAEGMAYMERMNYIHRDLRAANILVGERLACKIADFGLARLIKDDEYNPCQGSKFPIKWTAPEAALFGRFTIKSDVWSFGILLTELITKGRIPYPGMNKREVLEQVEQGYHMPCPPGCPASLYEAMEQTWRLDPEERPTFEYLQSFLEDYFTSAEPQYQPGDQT
T4 sequence (P23458 875-1153 limits assumed, species assumed): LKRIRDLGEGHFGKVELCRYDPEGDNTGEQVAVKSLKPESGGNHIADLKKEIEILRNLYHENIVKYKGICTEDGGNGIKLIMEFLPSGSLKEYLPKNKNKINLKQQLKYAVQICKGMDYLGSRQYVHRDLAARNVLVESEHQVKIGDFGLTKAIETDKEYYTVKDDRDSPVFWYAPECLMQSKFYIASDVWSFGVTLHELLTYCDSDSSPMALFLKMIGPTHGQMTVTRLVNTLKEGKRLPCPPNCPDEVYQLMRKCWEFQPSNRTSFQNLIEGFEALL
T3 sequence (Q86Z02 whole entry, species assumed): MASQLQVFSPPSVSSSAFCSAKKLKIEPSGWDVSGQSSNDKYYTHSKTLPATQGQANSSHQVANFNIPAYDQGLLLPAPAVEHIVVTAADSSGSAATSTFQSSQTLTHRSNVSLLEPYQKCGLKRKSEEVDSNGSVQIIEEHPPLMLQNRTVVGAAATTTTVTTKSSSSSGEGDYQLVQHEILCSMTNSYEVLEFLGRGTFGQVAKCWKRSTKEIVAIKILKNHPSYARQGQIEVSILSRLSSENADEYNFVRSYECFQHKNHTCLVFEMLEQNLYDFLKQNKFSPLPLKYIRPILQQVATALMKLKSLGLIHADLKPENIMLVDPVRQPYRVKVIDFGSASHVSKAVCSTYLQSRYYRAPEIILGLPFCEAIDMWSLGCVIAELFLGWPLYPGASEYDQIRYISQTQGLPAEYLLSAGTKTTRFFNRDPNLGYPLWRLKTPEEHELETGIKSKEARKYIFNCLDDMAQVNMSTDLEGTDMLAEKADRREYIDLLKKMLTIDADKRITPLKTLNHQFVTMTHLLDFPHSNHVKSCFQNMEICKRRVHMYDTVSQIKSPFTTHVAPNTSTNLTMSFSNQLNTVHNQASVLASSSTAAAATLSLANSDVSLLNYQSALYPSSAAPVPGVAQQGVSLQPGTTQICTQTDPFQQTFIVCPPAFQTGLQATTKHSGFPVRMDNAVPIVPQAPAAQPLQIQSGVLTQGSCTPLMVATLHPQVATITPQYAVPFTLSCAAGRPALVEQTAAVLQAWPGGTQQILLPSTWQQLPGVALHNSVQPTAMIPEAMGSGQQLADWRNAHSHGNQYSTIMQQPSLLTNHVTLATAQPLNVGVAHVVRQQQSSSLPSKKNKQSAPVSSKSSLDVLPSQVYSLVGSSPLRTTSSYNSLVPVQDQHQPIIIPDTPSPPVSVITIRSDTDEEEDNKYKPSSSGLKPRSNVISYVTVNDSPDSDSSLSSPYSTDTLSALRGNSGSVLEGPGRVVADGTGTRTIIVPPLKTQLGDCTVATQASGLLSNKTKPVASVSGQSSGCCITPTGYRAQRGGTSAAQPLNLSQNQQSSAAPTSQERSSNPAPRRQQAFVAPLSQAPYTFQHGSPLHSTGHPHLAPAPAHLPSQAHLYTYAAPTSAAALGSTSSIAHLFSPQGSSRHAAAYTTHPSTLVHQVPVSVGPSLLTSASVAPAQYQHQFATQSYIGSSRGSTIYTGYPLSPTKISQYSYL
T8 sequence (P29597 575-1187 limits assumed, species assumed): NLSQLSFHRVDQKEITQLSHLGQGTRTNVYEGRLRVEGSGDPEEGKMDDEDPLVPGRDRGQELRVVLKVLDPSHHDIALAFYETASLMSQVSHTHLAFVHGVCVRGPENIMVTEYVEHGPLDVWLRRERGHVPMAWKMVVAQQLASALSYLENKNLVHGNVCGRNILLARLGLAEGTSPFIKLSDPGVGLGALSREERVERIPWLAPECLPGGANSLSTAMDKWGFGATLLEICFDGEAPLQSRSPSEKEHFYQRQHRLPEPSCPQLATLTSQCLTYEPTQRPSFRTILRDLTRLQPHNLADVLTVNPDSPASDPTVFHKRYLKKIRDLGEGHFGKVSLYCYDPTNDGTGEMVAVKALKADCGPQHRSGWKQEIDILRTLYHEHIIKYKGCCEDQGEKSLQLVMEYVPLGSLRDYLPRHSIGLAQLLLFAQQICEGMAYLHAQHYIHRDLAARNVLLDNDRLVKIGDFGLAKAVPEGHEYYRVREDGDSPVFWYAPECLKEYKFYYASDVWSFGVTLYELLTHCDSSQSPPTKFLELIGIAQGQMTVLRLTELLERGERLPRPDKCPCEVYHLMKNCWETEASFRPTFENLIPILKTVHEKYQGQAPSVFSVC
T7 sequence (P00533 25-1210, species assumed): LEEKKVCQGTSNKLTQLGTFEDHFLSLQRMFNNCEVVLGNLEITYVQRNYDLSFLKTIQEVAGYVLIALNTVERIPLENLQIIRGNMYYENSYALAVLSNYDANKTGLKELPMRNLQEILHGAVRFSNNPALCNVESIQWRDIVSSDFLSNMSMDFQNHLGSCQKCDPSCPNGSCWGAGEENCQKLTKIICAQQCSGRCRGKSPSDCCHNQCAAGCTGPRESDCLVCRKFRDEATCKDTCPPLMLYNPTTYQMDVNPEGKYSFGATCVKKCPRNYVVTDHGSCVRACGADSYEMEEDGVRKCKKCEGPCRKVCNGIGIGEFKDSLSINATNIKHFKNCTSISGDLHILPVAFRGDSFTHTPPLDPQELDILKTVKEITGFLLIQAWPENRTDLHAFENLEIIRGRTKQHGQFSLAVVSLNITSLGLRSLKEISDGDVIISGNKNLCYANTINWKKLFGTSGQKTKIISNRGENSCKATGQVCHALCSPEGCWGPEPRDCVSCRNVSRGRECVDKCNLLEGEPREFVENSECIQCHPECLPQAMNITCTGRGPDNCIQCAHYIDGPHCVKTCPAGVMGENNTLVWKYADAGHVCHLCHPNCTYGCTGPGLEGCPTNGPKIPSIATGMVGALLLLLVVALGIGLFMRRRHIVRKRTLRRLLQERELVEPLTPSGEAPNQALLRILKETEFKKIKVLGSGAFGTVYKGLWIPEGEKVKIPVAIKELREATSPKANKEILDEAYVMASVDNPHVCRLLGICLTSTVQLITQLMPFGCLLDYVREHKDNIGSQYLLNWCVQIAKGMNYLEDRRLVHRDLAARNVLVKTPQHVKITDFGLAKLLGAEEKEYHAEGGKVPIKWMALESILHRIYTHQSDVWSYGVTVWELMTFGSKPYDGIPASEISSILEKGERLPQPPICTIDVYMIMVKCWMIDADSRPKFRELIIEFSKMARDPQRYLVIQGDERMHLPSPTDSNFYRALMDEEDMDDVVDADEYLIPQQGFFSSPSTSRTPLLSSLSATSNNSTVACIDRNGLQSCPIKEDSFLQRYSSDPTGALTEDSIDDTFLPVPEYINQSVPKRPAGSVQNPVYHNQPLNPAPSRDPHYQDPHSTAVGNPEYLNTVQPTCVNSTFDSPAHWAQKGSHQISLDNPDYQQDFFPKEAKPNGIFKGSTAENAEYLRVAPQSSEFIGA
T1 sequence (Q9HC98 whole entry, species assumed): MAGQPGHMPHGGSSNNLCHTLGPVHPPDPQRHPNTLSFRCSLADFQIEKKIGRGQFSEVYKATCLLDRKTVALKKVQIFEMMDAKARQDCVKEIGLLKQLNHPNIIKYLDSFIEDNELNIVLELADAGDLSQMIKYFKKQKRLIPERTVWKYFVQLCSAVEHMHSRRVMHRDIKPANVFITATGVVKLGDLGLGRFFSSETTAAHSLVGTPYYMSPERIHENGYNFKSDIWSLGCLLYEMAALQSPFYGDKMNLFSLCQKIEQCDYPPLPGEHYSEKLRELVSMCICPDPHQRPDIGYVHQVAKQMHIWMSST

Regarding `C=CC(=O)N1CCC[C@@H](c2c(F)cc(C(N)=O)c3[nH]c4c(c23)CCC4)C1` [Compound 10-2, (S)-8-(1-acryloylpiperidin-3-yl)-7-fluoro-1,2,3,4-tetrahydrocyclo-penta[b]indole-5-carboxamide], the inhibition at 1 µM was -13.6% at NEK6; -34.9% on SGK2; 33.6% against HIPK1; 1.9% at JAK1(JH1); 3.6% at FGR; 11.8% against NEK1. The inhibition at 1 µM against TSSK1 is 14%; against EGFR, 1.6%; on PDGFRA, 2.1%; against TYK2(JH1JH2), 28.6%.

Consider `C=CC(=O)N1CCCC(c2c(F)cc(C(N)=O)c3[nH]c4c(c23)CCCCC4)C1` (single isomer, unassigned) [Compound 5-6], for which the inhibition at 1 µM on NEK6 is -13.5%; against SGK2 it was -46.7%; on HIPK1, 6.6%; against JAK1(JH1), 1.3%; against FGR it was 17.1%; against NEK1, -3.1%. For the same molecule, the inhibition at 1 µM on TSSK1 is 7.3%; against EGFR, -7.8%; against PDGFRA it was -26.6%; against TYK2(JH1JH2), 18.9%.

`C=CC(=O)N1CCC[C@@H](c2c(F)cc(C(N)=O)c3[nH]c4c(c23)CC2(CC4)CC2)C1` [Compound 6-2, (S)-5-(1-acryloylpiperidin-3-yl)-6-fluoro-1,2,4,9-tetrahydrospiro[carbazole-3,1′-cyclopropane]-8-carboxamide]: the inhibition at 1 µM on NEK6 was -5.8%; against SGK2, -26.2%; on HIPK1, 41.1%; on JAK1(JH1), 25.6%; against FGR, -25.9%; against NEK1, 7.9%. Also, the inhibition at 1 µM was -3% on TSSK1, -7.7% on EGFR, 23.9% against PDGFRA and -27.1% on TYK2(JH1JH2).
